The values below come from paper PMC9131456, “Structure-Based Discovery of Lipoteichoic Acid Synthase Inhibitors” (Journal of Chemical Information and Modeling, 2022).

For data set [1], the system named is S. aureus (strain Newman). Description: Antimicrobial microdilution broth assay (growth inhibition). Type of data set: cell-based. The following applies: S. aureus strain Newman growth, OD600nm after 20 h at 37 °C, MH2 broth, mean ± s.e.m., n = 3. The method, then:
All the compounds tested in this study were dissolved in dimethyl sulfoxide (DMSO) at an initial stock concentration of 20 mM and stored at −20 °C. These compounds were tested for their antimicrobial activity using the microdilution broth method[66] following the protocol described by Richter et al.[30] Briefly, overnight cultures of S. aureus (strain Newman) grown at 37 °C in cation-adjusted Mueller Hinton II (MH2) broth were adjusted to an OD600nm of 0.6 before back-diluted with a factor of 1:2000 with the same broth. After that, 200 μL of the diluted bacterial culture were dispensed into each well of 96-well plates supplemented with the compounds to the desired concentrations. The plates were then sealed with a moisture membrane barrier and incubated statically for 20 h at 37 °C. After that, the OD600nm values of the cultures in each well were measured using a CLARIOstar microplate reader (BMG Labtech). The procedures for the potentiation assays were by large the same as described above with some variations. In such assays, MRSA strain COL was grown in the 96-well plates supplemented with different concentrations of compound 9 with methicillin, carbenicillin, or polymyxin B in a checkerboard format. Their synergistic effects were quantified by OD600nm measurements using a CLARIOstar microplate reader (BMG Labtech).
On the technique in general: Dilution methods test growth across graded concentrations, often in twofold steps.

In data set [2] the test system is LTA production in S. aureus (strain RN4220). In words: Western blot (immunoblotting) of LTA in S. aureus cell extracts. Type of data set: cell-based. Particulars: for LTA production: Western blot of S. aureus cell extracts, 10 μM in Figure S14, 100 μM for compound 8. The method, then: The procedures of LTA detection using Western Blot had previously been reported by Gründling et al.[52] To determine the effect of the compounds on LTA production, 10 mL cultures of S. aureus (strain RN4220) in MH2 broth were incubated in an orbital shaker at 37 °C with either the compounds or DMSO. When the control cultures had reached an OD600nm ∼ 1, the bacteria were pelleted and the OD600nm of the cultures normalized by resuspension with the appropriate amount of MH2 broth. Subsequently, 1 mL from each cultures was mixed with 0.5 mL of 0.1 mm glass beads, and the bacteria were lyzed by vortexing at 4 °C for 45 min. After lysis, glass beads were removed by centrifugation at 200g, and the supernatants were transferred to a new tube. The membrane-associated LTA from each culture were pelleted by an additional centrifugation step of the supernatant at 16,000g for 15 min before resuspension in 30 μL of 2× SDS. The samples were boiled at 80 °C for 20 min, and the solubilized fractions were loaded onto 15% SDS-polyacrylamide gels prior to electrophoresis at 120 V for 1.5 h. The LTA on the gels were electrotransferred onto FL-immobilon PVDF membranes at 25 V for another 1.5 h. After the electrotransfer, the membranes were blocked with 5% skimmed milk for 1 h and incubated with the antimouse LTA antibody (clone G43J, Thermo Fisher Scientific; 1:1000 dilution) overnight at 4 °C. After washing, the membranes were incubated with antimouse IRDye 680RD (1:10,000 dilution) for 1 h, washed, and visualized using the Odyssey CLx Imaging System.

Data set [3] deals with IsaA. In words: SDS-PAGE and LC/MS-MS analysis of the lysate of treated S. aureus. In kind it is cell-based. Particulars: S. aureus treated with 100 μM compound, SDS-PAGE.
Data set [4] relates to HEK293 cells. In words: LDH release cytotoxicity assay. Type of data set: cell-based, human. The following applies: 200 μM compound, 24 h. The method, then: The human embryonic kidney (HEK293) cells were maintained in Dulbecco’s modified Eagle medium (DMEM) supplemented with 10% fetal bovine serum and 100 units/mL of penicillin–streptomycin. For the cell viability assays, cells were seeded onto 96-well plates at a density of 4 × 10^4 cells/well and grown at 37 °C at 5% CO2. After incubating the cells for 24 h, the culture media were replaced with fresh DMEM supplemented with 200 μM of the compounds 1771, compound 4, compound 8, and compound 9 and incubated further for an additional 24 h. The cytotoxicity of these drugs was measured using the LDH Cytotoxicity Assay Kit according to the manufacturer’s instruction (Thermo Scientific). The absorbance at 490 nm was measured with a CLARIOstar microplate reader (BMG Labtech), and the reference wavelength was set at 630 nm.

For data set [5], the target named is T1, Arg356Ala eLtaS (Staphylococcus aureus, UniProt Q2G093, R356A).
T1 construct: LtaS is a transmembrane protein with a large extracellular catalytic domain (denoted as eLtaS); His-tag; made in house; host or cells: E. coli Rosetta 2 (DE3), pET19m
Description: Isothermal titration calorimetry, Arg356Ala eLtaS. Type of data set: binding, S. aureus. Particulars: ITC, compared with wild-type eLtaS. An excerpt:
(§1) The plasmid [Rosetta pProEX-eLtaS] from E coli strain ANG571 was extracted using the QIAprep Spin Miniprep Kit. Meanwhile, the genes encoding the mutant LtaS with mutations His416Ala, His347Ala, and Arg356Ala were extracted from the strains ANG1115, ANG1175, and ANG1178, respectively, using the QIAamp DNA Mini Kit. These genes were amplified using PCR, cut with NdeI/BamHI, and ligated into a pET19m transformed into E. coli Rosetta 2 (DE3) strain.
(§2) Each of the eLtaS proteins were purified from 6 L of E. coli cultures that were grown with aeration in LB medium supplemented with 200 μg/mL of carbenicillin and 34 μg/mL of chloramphenicol at 37 °C. When the cultures reached an OD600nm of about 0.6, protein expression was induced with 1 mM IPTG final concentration at 21 °C overnight. […] All four eLtaS proteins were subjected to circular dichroism analysis, and their exact masses were determined using MS.
(§3) The thawed eLtaS proteins were dialyzed using D-Tube Dialyzer Mini (EMD Millipore) in 20 mM Trizma-HCl pH 7.5, 100 mM NaCl with Chelex 100 (Sigma-Aldrich) for 1.5 h twice on the same day prior to the ITC experiments. […] Data were first analyzed in NITPIC[69] for baseline calculations and then fit for thermodynamic parameters using the OneSite model in Origin 7.0 software.
(In general: ITC needs no label: the signal is the heat of the interaction.)

Data set [6] has as its system S. aureus (strain Newman). In words: Non-lethal S. aureus lung infection mouse model. In kind it is in vivo, BALB/c female mice. Particulars: 300 μg intranasally, infected BALB/c mice. The source says:
All in vivo experiments were done at the University of Liverpool under the UK Animals (Scientific Procedures) Act 1986 guidelines. The protocols were approved by the UK Home Office and by the University of Liverpool Animal Welfare and Ethics Committee. Six to eight week old BALB/c female mice (Charles River, UK) were used in the study after being left to acclimatize for a minimum of 7 days prior to experimentation. Mice were intranasally infected with 5 × 10^7 CFU of the S. aureus (strain Newman) in 50 μL of sterile phosphate-buffered saline (PBS). The bacterial dose was prepared by incubating 50 μL of an overnight culture in brain heart infusion (BHI) broth (Oxoid, Thermo Fisher Scientific, UK) into 5 mL of fresh BHI. Once the culture reached an OD600 = 2–3, the bacterial numbers were adjusted to the desired dose using sterile PBS. Three hours postinfection, mice were intranasally treated with either 50 μL of sterile PBS (control) or with 300 μg of compounds 1771 and compound 4 dissolved in 50 μL of sterile PBS. The final DMSO concentration was 5%, and the PBS control also contained 5% DMSO. Mice were culled 24 h postinfection; lungs were collected, homogenized, and serially diluted to determine CFU counts.[70] Significant differences were determined using the unpaired two-tailed Student t-test (p = 0.0013).

The target of data set [7] is T2, His416Ala eLtaS (Staphylococcus aureus, UniProt Q2G093, H416A).
T2 construct: LtaS is a transmembrane protein with a large extracellular catalytic domain (denoted as eLtaS); His-tag; made in house; host or cells: E. coli Rosetta 2 (DE3), pET19m
Description: Isothermal titration calorimetry, His416Ala eLtaS. In kind it is binding, S. aureus. The following applies: ITC, compared with wild-type eLtaS.
From the text: as §1, §2, §3

Data set [8] has as its target T3, His347Ala eLtaS (Staphylococcus aureus, UniProt Q2G093, H347A).
T3 construct: LtaS is a transmembrane protein with a large extracellular catalytic domain (denoted as eLtaS); His-tag; made in house; host or cells: E. coli Rosetta 2 (DE3), pET19m
In words: Isothermal titration calorimetry, His347Ala eLtaS. In kind it is binding, S. aureus. Particulars: ITC, compared with wild-type eLtaS.
From the text: as §1, §2, §3

The test system of data set [9] is LTA synthase (LtaS). The arrangement: method as in PMID 23401520. Particulars: by inhibiting LtaS; cited from earlier work.
Details of data set [10]: method as in PMID 23401520. The following applies: lethal sepsis mouse model; cited from earlier work.
Data set [11] addresses T4, wild-type eLtaS (Staphylococcus aureus, UniProt Q2G093).
T4 construct: LtaS is a transmembrane protein with a large extracellular catalytic domain (denoted as eLtaS); His-tag; made in house; host or cells: E. coli (Rosetta; plasmid pProEX-eLtaS from strain ANG571)
In words: Isothermal titration calorimetry, wild-type eLtaS. Type of data set: binding, S. aureus. The following applies: ITC, 25 °C, wild-type eLtaS titrated into 10 μM inhibitor. The method, then: Each of the eLtaS proteins were purified from 6 L of E. coli cultures that were grown with aeration in LB medium supplemented with 200 μg/mL of carbenicillin and 34 μg/mL of chloramphenicol at 37 °C. When the cultures reached an OD600nm of about 0.6, protein expression was induced with 1 mM IPTG final concentration at 21 °C overnight. Later, the bacteria were harvested by centrifugation at 11,899g, and the bacterial pellets were resuspended with lysis buffer (50 mM Trizma-HCl, pH 7.5, 300 mM NaCl, 5% glycerol, 10 mM imidazole, 5 mM β-mercaptoethanol). The bacterial pellets were lyzed by three passages through a high-pressure emulsifier, and the lysates were centrifuged at 47,596g for 30 min at 4 °C. The resulting supernatants containing the His-tagged eLtaS proteins were filtered with a 0.22 μm filter before being loaded onto a 5 mL Ni-NTA column using an ÄKTApure protein purification system. The bound proteins were subsequently washed with lysis buffer, eluted using the elution buffer (50 mM Trizma-HCl, pH 7.5, 300 mM NaCl, 5% glycerol, and 300 mM imidazole), and dialyzed twice using the dialysis buffer [25 mM Trizma-HCl, pH 7.5, 100 mM NaCl, 10% glycerol, 1 mM ethylenediaminetetraacetic acid (EDTA)]. After dialysis, protein purity was confirmed to be >90% using SDS-PAGE. Proteins were then concentrated, snap-frozen in liquid N2, and stored at −80 °C prior to usage. All four eLtaS proteins were subjected to circular dichroism analysis, and their exact masses were determined using MS.
The thawed eLtaS proteins were dialyzed using D-Tube Dialyzer Mini (EMD Millipore) in 20 mM Trizma-HCl pH 7.5, 100 mM NaCl with Chelex 100 (Sigma-Aldrich) for 1.5 h twice on the same day prior to the ITC experiments. After dialysis, the eLtaS proteins were centrifuged at 20,000g at 10 °C for 10 min. The supernatants were transferred to new microcentrifuge tubes and diluted to 100 μM using the same buffer as above with an addition of 0.1% (v/v) DMSO. Meanwhile, the eLtaS inhibitors were diluted to 10 μM using the same buffer and maintaining 0.1% (v/v) DMSO. The eLtaS proteins were titrated into the main cell containing the inhibitors using a VP-ITC at 25 °C. The injection parameters were set as follows: a reference power of 15 μcal/s, an initial injection of 3 μL over a duration of 3.6 s, and then subsequent injections of 10 μL over a duration of 12 s. All injections were spaced with 240 s with a filter period of 2 s. Data were first analyzed in NITPIC[69] for baseline calculations and then fit for thermodynamic parameters using the OneSite model in Origin 7.0 software.

The mark [12] stands for this setting: Staphylococcus aureus, NEWMAN, 20 h.

One may read the IC50 as the concentration at which inhibition is half-maximal. Turning to `COc1ccccc1Nc1ncccc1C(=O)OCC(=O)Nc1nnc(-c2ccccc2)o1` [Compound 2], in [1], the IC50 was 12.3 ± 0.38 µM.

For the compound `Cc1csc(SCc2ccccc2C(=O)OCC(=O)Nc2nnc(-c3ccccc3)o2)n1` [Compound 3], the LTA production entry in [2] is on record as “able to reduce LTA production”. Further, the IC50 in [1] turned out to be 13.4 ± 0.35 µM.

In the case of `O=C(COC(=O)CSC(c1ccccc1)c1ccccc1)Nc1nnc(-c2ccccc2)o1` [Compound 5], the IC50 in [1] came to 17.5 ± 1.08 µM.

For `Cc1cccc(COc2ccccc2C(=O)OCC(=O)Nc2nnc(-c3ccccc3)o2)c1` [Compound 6], in data set [2], the LTA production result is “able to reduce LTA production”. The IC50 in data set [1] is 11.1 ± 0.49 µM.

On to `O=C(COC(=O)/C=C/c1ccc2ccccc2n1)Nc1nnc(-c2ccccc2)o1` [Compound 7], for which the IC50 in data set [1] was 12.4 ± 1.9 µM.

In the case of `O=C(Nc1ccc(Oc2ccc(NC(=O)Nc3ccc([N+](=O)[O-])cc3)cc2)cc1)Nc1ccc([N+](=O)[O-])cc1` [Compound 8], the LTA production entry in data set [2] was “did not decrease LTA production”. Further, in [2] (Western blot, 100 μM compound), the “electrophoretic mobility of the LTA extracted from treated S. aureus” value is “decreased electrophoretic mobility and higher heterogeneity”. For the same compound, the “protein upregulation in the lysate (IsaA, a peptidoglycan hydrolase)” value in data set [3] is “upregulated a 24 kDa protein”. Further, the IC50 in data set [1] and in data set [1] (setting [12]) was 29.4 µM each time. Moreover, in [4], the “cytotoxicity (LDH release)” value was “cytotoxic”.

In general, Kd refers to the constant that tells how readily two partners part at equilibrium. A higher Kd goes with weaker binding. Turning to `O=C(COC(=O)Cc1coc2ccc3ccccc3c12)Nc1nnc(-c2ccccc2)o1` [compound 1771], the “binding affinity to the Arg356Ala eLtaS variant” value in data set [5] is listed as “slight increase in binding affinities”. Besides, the tolerability in mice result in data set [6] is “did not tolerate the latter well”. Moreover, the “binding affinity to the His416Ala eLtaS variant” value in data set [7] is recorded as “slight increase in binding affinities”. In data set [8], the “binding to the His347Ala eLtaS variant” value is on record as “abolished”. Moreover, the LTA synthesis result in data set [9] is listed as “able to suppress LTA synthesis”. Besides, in data set [10], the in vivo stability result is given as “lost activity over time due to in vivo instability” and the “survival of infected mice” value is listed as “temporarily prolong the survival of the infected mice”. The same compound showed a Kd in data set [11] of 0.457 ± 0.0071 µM. For the same compound, the IC50 in data set [1] worked out at 14.9 ± 1.59 µM. In addition, in data set [1] (setting [12]), the IC50 came to 14.5 µM.
